Experimental data reported in patent publication US4454290A, “Stevioside analogs” (Dynapol, priority 1981, dated 1984).
Where a name gives a salt, the structure may show the parent alone. Blank lines part the entries; values can stand above or below the compound they belong to.

Tests used:
[1] = Taste test by a group of volunteers / sensory comparison; format: in vivo; conditions: for taste of the material: concentration not given; for Pm, potency compared to sucrose = 1, molar basis / Pw, potency compared to sucrose = 1, weight basis / Taste Character, Bitter / Taste Character, Other / Taste Character, Salty / Taste Character, Sour / Taste Character, Sweet / Taste Character, Sweet/bitter, other: 12 judgements, stevioside 500 ppm, Example 1 534 ppm, saccharin 330 ppm
Method: Steviolbioside, 3-sulfopropyl ester, potassium salt prepared in Part B. was dissolved in distilled water at a concentration of 0.2 wt% and tasted by a group of volunteers. […] The solution was diluted to 0.0534 wt% and retasted.

[2] = Stability test: anaerobic incubation with fresh rat cecal contents, 37° C.; format: in vitro ADME
Method: An important property of these stevioside analogs is their stability and resistance to conversion to steviol at the conditions of the mammalian gastrointestinal tract. […] At these conditions, no degradation to steviol occurs to a limit of detection of 0.13%.
Steviolbioside, 3-sulfopropyl ester, potassium salt prepared in Part B. was incubated anaerobically for three days at 37° C. with 5 wt% fresh rat cecal contents, at concentrations of 0.25, 0.5, and 1.0 mg/ml in sterile Krebs-Ringer 0.25M phosphate buffer (pH 7.4) containing 0.25 mg/ml dithiothreitol and 0.25 mg/ml α-D-glucose. […] No steviol (Rf =0.95; tR =31.3 min) was detected. After 3 days the bacterial cells were sedimented by centrifugation. The sediment was extracted (THF), as was the supernatant, after lyophilization. […] With a detection limit of […], as little as 0.03 and 0.13 percent degradation to steviol could have been detected for the sediment and supernatant fractions, respectively.

[3] = Use in comestibles (taste of sweetened beverages and gelatin); format: in vivo
Method: Based on the results of Part D, one can employ the compound of Part B as a sweetener for comestibles. In exemplary uses 0.08% by weight of the compound is dissolved in an unsweetened cola beverage, a like concentration of the compound is added to an unsweetened lemonade and to coffee. […] In two other cases, 0.04% by weight is added to coffee along with 0.02% by weight of saccharin and 3% by weight of sucrose, respectively. […] B.
Cups of coffee are prepared: To each is added 500 ppm by weight, basis solution, of one of each of the sweeteners prepared in Examples II-VIII. The coffees present a sweetened taste when sampled.
Gelatin, food color and fruit flavor are dissolved in water at levels suitable for forming a jelled food product. The solution is not sweet. The materials of Claims II-VIII are each added to separate samples in amounts of 600 ppm and the samples are cast into jelled products. The resulting gelatin products are sweet.

[4] = Taste test by a group of volunteers / sensory comparison; format: in vivo; conditions: for Ip, sample intensity relative to 10% sucrose: mean value(2 Sm), 12 judgements, stevioside 500 ppm, Example 1 534 ppm, saccharin 330 ppm
[5] = Wingard et al., Experientia; cited from earlier work
[6] = likelihood suggested by Wingard et al., 1980; cited from earlier work
[7] = Bridel et al., cited from earlier work
[8] = Dorfman et al.; cited from earlier work
[9] = system: ATP synthetase; conditions: in cell mitochondria; Vignais 1966; cited from earlier work
[10] = likelihood suggested by Wingard et al., 1980; cited from earlier work; remark: listed apart in the source
[11] = compared with material of Example I
[12] = 1000 ppm by weight in distilled water

stability properties evaluated as in Part C of Example I [2, 11]: same advantageous properties
SMILES: C=C1C[C@@]23CC[C@H]4[C@@](C)(CCC[C@@]4(C)C(=O)OCCCS(=O)(=O)O)[C@@H]2CC[C@]1(O[C@@H]1O[C@H](CO)[C@@H](O)[C@H](O)[C@H]1O[C@@H]1O[C@H](CO)[C@@H](O)[C@H](O)[C@H]1O)C3 [II, steviolbioside, 3-sulfopropyl ester, sodium salt]
taste properties evaluated as in Part D of Example I [1, 11]: same advantageous properties | use in comestibles evaluated as in Part E of Example I [3, 11]: same advantageous properties

SMILES: C=C1C[C@@]23CC[C@H]4[C@@](C)(CCC[C@@]4(C)C(=O)OCC(=O)O)[C@@H]2CC[C@]1(O[C@@H]1O[C@H](CO)[C@@H](O)[C@H](O)[C@H]1O[C@@H]1O[C@H](CO)[C@@H](O)[C@H](O)[C@H]1O)C3 [VII, steviolbioside, carboxymethyl ester, sodium salt]
taste of the material [1]: sweet

SMILES: O=C1NS(=O)(=O)c2ccccc21 [Saccharin, saccharin, reference compound]
Ip, sample intensity relative to 10% sucrose [4]: 0.98(0.09) | Pm, potency compared to sucrose = 1, molar basis [1]: 180(20) | Pw, potency compared to sucrose = 1, weight basis [1]: 300(30) | Taste Character, Bitter [1]: 12(8) % | Taste Character, Other [1]: 3(2) % | Taste Character, Salty [1]: 0(0) % | Taste Character, Sour [1]: 0(0) % | Taste Character, Sweet [1]: 85(6) % | Taste Character, Sweet/bitter, other [1]: 85/15

SMILES: C=C1C[C@@]23CC[C@H]4[C@@](C)(CCC[C@@]4(C)C(=O)OCCCCS(=O)(=O)O)[C@@H]2CC[C@]1(O[C@@H]1O[C@H](CO)[C@@H](O)[C@H](O)[C@H]1O[C@@H]1O[C@H](CO)[C@@H](O)[C@H](O)[C@H]1O)C3 [III, steviolbioside, 4-sulfobutyl ester, sodium salt]
taste of the material [1]: sweet, like the material of Example I

SMILES: C=C1C[C@@]23CC[C@H]4[C@@](C)(CCC[C@@]4(C)C(=O)OCCC(N)C(=O)O)[C@@H]2CC[C@]1(O[C@@H]1O[C@H](CO)[C@@H](O)[C@H](O)[C@H]1O[C@@H]1O[C@H](CO)[C@@H](O)[C@H](O)[C@H]1O)C3 (some centres unmarked) [VI]
taste of the material [1]: sweet and sucrose like

SMILES: C=C1C[C@@]23CC[C@H]4[C@@](C)(CCC[C@@]4(C)C(=O)OC(CCC(=O)O)C(=O)O)[C@@H]2CC[C@]1(O[C@@H]1O[C@H](CO)[C@@H](O)[C@H](O)[C@H]1O[C@@H]1O[C@H](CO)[C@@H](O)[C@H](O)[C@H]1O)C3 (some centres unmarked) [V]
taste of the material [1]: sweet

time within which all the initial ester was consumed ([2]; 5 wt% fresh rat cecal contents, 0.25, 0.5 and 1.0 mg/ml, pH 7.4, 37° C., anaerobic, TLC and HPLC): ≤ 24 h | steviol in THF extracts (HPLC) ([2]; after 3 days, sediment and supernatant extracts): none to be detectable | steviol detected (TLC and HPLC of incubation) ([2]; rat cecal contents, 37° C.): No steviol
SMILES: C=C1C[C@@]23CC[C@H]4[C@@](C)(CCC[C@@]4(C)C(=O)OCCCS(=O)(=O)O)[C@@H]2CC[C@]1(O[C@@H]1O[C@H](CO)[C@@H](O)[C@H](O)[C@H]1O[C@@H]1O[C@H](CO)[C@@H](O)[C@H](O)[C@H]1O)C3 [Example I, Steviolbioside, 3-sulfopropyl ester, potassium salt]
Ip, sample intensity relative to 10% sucrose [4]: 0.84(0.06) | taste quality ([1]; 0.0534 wt%): very sucrose-like, having negligible off-flavors | sweetness equivalent ([1]; 0.0534 wt% in distilled water): 8-9 wt% sucrose | taste of solution ([1]; 0.2 wt% in distilled water): very intense sweet taste | Pm, potency compared to sucrose = 1, molar basis [1]: 360(20) | Pw, potency compared to sucrose = 1, weight basis [1]: 160(10) | Taste Character, Bitter [1]: 4(6) % | Taste Character, Other [1]: 4(4) % | Taste Character, Salty [1]: 0(0) % | Taste Character, Sour [1]: 0(0) % | Taste Character, Sweet [1]: 92(6) % | Taste Character, Sweet/bitter, other [1]: 92/8 | taste compared with saccharin and stevioside ([1]; Table II): superior to the tastes of saccharin and stevioside itself | degradation product formed ([2]; rat cecal contents, within 24 h, TLC and HPLC): apparently only the sulfopropyl ester of steviol | sweetness in comestibles, with co-sweetener ([3]; 0.04% by weight in coffee with 0.02% saccharin or 3% sucrose): sweetness is imparted | sweetness in comestibles ([3]; 0.08% by weight in unsweetened cola, unsweetened lemonade and coffee): sweetness is imparted

SMILES: C=C1C[C@@]23CC[C@H]4[C@@](C)(CCC[C@@]4(C)C(=O)O[C@@H]4O[C@H](CO)[C@@H](O)[C@H](O)[C@H]4O)[C@@H]2CC[C@]1(O[C@@H]1O[C@H](CO)[C@@H](O)[C@H](O)[C@H]1O[C@@H]1O[C@H](CO)[C@@H](O)[C@H](O)[C@H]1O)C3 [Stevioside, stevioside]
Ip, sample intensity relative to 10% sucrose [4]: 0.94(0.06) | degradation to steviol [5]: essentially quantitative degradation to steviol | Pm, potency compared to sucrose = 1, molar basis [1]: 440(30) | Pw, potency compared to sucrose = 1, weight basis [1]: 190(10) | Taste Character, Bitter [1]: 30(10) % | Taste Character, Other [1]: 8(5) % | Taste Character, Salty [1]: 0(0) % | Taste Character, Sour [1]: 0(0) % | Taste Character, Sweet [1]: 62(10) % | Taste Character, Sweet/bitter, other [1]: 62/38 | conversion to steviol in vivo [6]: largely converted to steviol in vivo | sweetness relative to sucrose [7]; 1931: about 300 times as sweet as sucrose | bitterness of taste [7]: substantial degree of bitterness

SMILES: C=C1C[C@@]23CC[C@H]4[C@@](C)(CCC[C@@]4(C)C(=O)O)[C@@H]2CC[C@]1(O)C3 [steviol]
antiandrogenic effects [8]: antiandrogenic effects | inhibition of ATP synthetase compared with atractyligenin [9]: even more potent inhibitor of ATP synthetase | absorption through the gastrointestinal tract wall [10]: completely absorbed

SMILES: C=C1C[C@@]23CC[C@H]4[C@@](C)(CCC[C@@]4(C)C(=O)OCCC(S(=O)(=O)O)S(=O)(=O)O)[C@@H]2CC[C@]1(O[C@@H]1O[C@H](CO)[C@@H](O)[C@H](O)[C@H]1O[C@@H]1O[C@H](CO)[C@@H](O)[C@H](O)[C@H]1O)C3 [VIII]
taste of solution [4, 12]: exceedingly sweet | sweetness intensity equal to sucrose solution [1, 12]: 10-12 % sucrose
